Results taken from patent US11345669B2, “Urea derivatives and methods of use thereof” (NodThera Limited, priority 2017, dated 2022).
Read-outs that look alike come from different tables or passages of the source.

Tested on: IL1-β release upon NLRP3 activation in peripheral blood mononuclear cells (PBMC)
Test: PBMC IC50 Determination Assay
Assay type: cell-based
Conditions: Homo sapiens
Description: PBMC IC50 Determination Assay
The compounds of the present disclosure were tested for their inhibitory activity against IL1-β release upon NLRP3 activation in peripheral blood mononuclear cells (PBMC).
Isolated cells were seeded into the wells of a 96-well plate and incubated for 3 h with lipopolysaccharide (LPS). Following medium exchange, the compounds of the present disclosure were added (a single compound per well) and the cells were incubated for 30 min. Next, the cells were stimulated either with ATP (5 mM) or nigericin (10 μM) for 1 h and the cell culture media from the wells were collected for further analysis.
The release of IL-1β into the media was determined by a quantitative detection of IL-1β in 5 the media using an IL-1β enzyme-linked immunosorbent assay (ELISA) Ready-SET-Go!, eBioscience cat. […] Subsequently, plates were blocked with blocking buffer for 1 h at room temperature (rt) and after washing with a buffer (PBS with 0.05% Tween-20) incubated with protein standard and culture media. […] Plates were washed and incubated with HRP-streptavidin for 30 min at rt and washed again. The signal was developed after addition of 3,39,S,59-tetramethylbenzidine-peroxidase (TMB) until color appeared and the reaction was stopped by 2 M H2SO4. A microplate spectrophotometer (BioTek) was used to detect signals with 450 nm. The detection range of IL-1β ELISA was […].

[1] = PBMC from buffy coats, LPS 3 h, compound 30 min, then ATP (5 mM) or nigericin (10 μM) for 1 h, IL-1β in media by ELISA, read-out: PBMCs, IC50
[2] = PBMC, read-out: PBMCs, IC50, μM

SMILES | IC50 [1] [µM] | IC50 [2] [µM]
COC(=O)C(Cn1ccnc1)NC(=O)Nc1c2c(cc3c1CCC3)CCC2 (stereo not drawn) [Example 2DD, methyl 2-{[(1,2,3,5,6,7-hexahydro-s-indacen-4-yl)carbamoyl]amino}-3-(1H-imidazol-1-yl)propanoate] | 6.2 | 
COC(=O)[C@@H](Cc1cccc(C#N)c1)NC(=O)Nc1c2c(cc3c1CCC3)CCC2 [Example 2E, Methyl(2R)-3-(3-cyanophenyl)-2-{[(1,2,3,5,6,7-hexahydro-s-indacen-4-yl)carbamoyl]amino}propanoate] | 1.7 | 
COC(=O)CNC(=O)Nc1c2c(cc3c1CCC3)CCC2 [Example 2EE, methyl 2-{[(1,2,3,5,6,7-hexahydro-s-indacen-4-yl)carbamoyl]amino}acetate] | 3.7 | 
COC(=O)[C@@H](Cc1ccccn1)NC(=O)Nc1c2c(cc3c1CCC3)CCC2 [Example 2F, Methyl (2R)-2-{[(1,2,3,5,6,7-hexahydro-s-indacen-4-yl)carbamoyl]amino}-3-(pyridin-2-yl)propanoate] | 4.2 | 
COC(=O)C(Cc1cccc(CO)c1)NC(=O)Nc1c2c(cc3c1CCC3)CCC2 (stereo not drawn) [Example 2G, Methyl2-{[(1,2,3,5,6,7-hexahydro-s-indacen-4-yl)carbamoyl]amino}-3-[3-(hydroxymethyl)phenyl]propanoate] | 1.4 | 
COC(=O)[C@@H](Cc1cccnc1)NC(=O)Nc1c2c(cc3c1CCC3)CCC2 [Example 2H, Methyl (2R)-2-{[(1,2,3,5,6,7-hexahydro-s-indacen-4-yl)carbamoyl]amino}-3-(pyridin-3-yl)propanoate] | 0.88 | 
COC(=O)[C@@H](Cc1cccc(N)c1)NC(=O)Nc1c2c(cc3c1CCC3)CCC2 [Example 2HH, methyl(2R)-3-(3-aminophenyl)-2-{[(1,2,3,5,6,7-hexahydro-s-indacen-4yl)carbamoyl]amino}propanoate] | 4.4 | 
COC(=O)C(Cc1cccc(-c2cncn2C)c1)NC(=O)Nc1c2c(cc3c1CCC3)CCC2 (stereo not drawn) [Example 2I, Methyl 2-{[(1,2,3,5,6,7-hexahydro-s-indacen-4-yl)carbamoyl]amino}-3-[3-(1-methyl-1H-imidazol-5-yl)phenyl]propanoate] | 0.96 | 
COC[C@@H](NC(=O)Nc1c2c(cc3c1CCC3)CCC2)C(=O)OC [Example 2II, methyl(2R)-2-{[(1,2,3,5,6,7-hexahydro-s-indacen-4-yl)carbamoyl]amino}-3-methoxypropanoate] | 5.3 | 
COC(=O)C(Cc1cccc(-c2cc[nH]n2)c1)NC(=O)Nc1c2c(cc3c1CCC3)CCC2 (stereo not drawn) [Example 2J, Methyl 2-{[(1,2,3,5,6,7-hexahydro-s-indacen-4-yl)carbamoyl]amino}-3-[3-(1H-pyrazol-5-yl)phenyl]propanoate] | 0.41 | 
COC(=O)[C@@H](CO)NC(=O)Nc1c2c(cc3c1CCC3)CCC2 [Example 2JJ, methyl(2R)-2-{[(1,2,3,5,6,7-hexahydro-s-indacen-4-yl)carbamoyl]amino}-3-hydroxypropanoate] | 26 | 
COC(=O)[C@@H](Cc1cccc(O)c1)NC(=O)Nc1c2c(cc3c1CCC3)CCC2 [Example 2K, Methyl(2R)-2-{[(1,2,3,5,6,7-hexahydro-s-indacen-4-yl)carbamoyl]amino}-3-(3-hydroxyphenyl)propanoate] | 1.3 | 
COC(=O)[C@@H](Cc1cccc(-c2cc[nH]n2)c1)NC(=O)Nc1c2c(cc3c1CCC3)CCC2 [Example 2L, Methyl (2R)-2-{[(1,2,3,5,6,7-hexahydro-s-indacen-4-yl)carbamoyl]amino}-3-[3-(1H-pyrazol-3-yl)phenyl]propanoate] | 0.14 | 
O=C(Nc1c2c(cc3c1CCC3)CCC2)N[C@H](Cc1cccnc1)C(=O)O [Example 2LL, (2R)-2-{[(1,2,3,5,6,7-hexahydro-s-indacen-4-yl)carbamoyl]amino}-3-(pyridin-3-yl)propanoic acid] | 2 | 
COC(=O)[C@@H](Cc1cccc(CO)c1)NC(=O)Nc1c2c(cc3c1CCC3)CCC2 [Example 2M, Methyl(2R)-2-{[(1,2,3,5,6,7-hexahydro-s-indacen-4-yl)carbamoyl]amino}-3-[3-(hydroxymethyl)phenyl]propanoate] | 0.38 | 
COCCOC(=O)[C@@H](Cc1cccnc1)NC(=O)Nc1c2c(cc3c1CCC3)CCC2 [Example 2MM, 2-methoxyethyl(2R)-2-{[(1,2,3,5,6,7-hexahydro-s-indacen-4-yl)carbamoyl]amino}-3-(pyridin-3-yl)propanoate] | 2.9 | 
COC(=O)[C@@H](CN)NC(=O)Nc1c2c(cc3c1CCC3)CCC2 [Example 2N, Methyl(2R)-3-amino-2-{[(1,2,3,5,6,7-hexahydro-s-indacen-4-yl)carbamoyl]amino}propanoate] | 9.3 | 

SMILES | IC50 [1] [µM] | IC50 [2] [µM]
O=C(Nc1c2c(cc3c1CCC3)CCC2)N[C@H](Cc1cccnc1)C(=O)OC1CCC1 [Example 2NN, cyclobutyl (2R)-2-{[(1,2,3,5,6,7-hexahydro-s-indacen-4-yl)carbamoyl]amino}-3-(pyridin-3-yl)propanoate] | 0.6 | 
COC(=O)[C@@H](CCSC)NC(=O)Nc1c2c(cc3c1CCC3)CCC2 [Example 2O, Methyl(2R)-2-{[(1,2,3,5,6,7-hexahydro-s-indacen-4-yl)carbamoyl]amino}-4-(methylsulfanyl)butanoate] | 3.2 | 
O=C(Nc1c2c(cc3c1CCC3)CCC2)N[C@H](Cc1cccnc1)C(=O)OCC1CC1 [Example 2OO, cyclopropylmethyl(2R)-2-{[(1,2,3,5,6,7-hexahydro-s-indacen-4-yl)carbamoyl]amino}-3-(pyridin-3-yl)propanoate] | 0.47 | 
COC(=O)[C@@H](Cc1cccc(NC(C)=O)c1)NC(=O)Nc1c2c(cc3c1CCC3)CCC2 [Example 2P, Methyl(2R)-3-(3-acetamidophenyl)-2-{[(1,2,3,5,6,7-hexahydro-s-indacen-4-yl)carbamoyl]amino}propanoate] | 0.14 | 
O=C(Nc1c2c(cc3c1CCC3)CCC2)N[C@H](Cc1cccnc1)C(=O)OC1CCCC1 [Example 2PP, cyclopentyl(2R)-2-{[(1,2,3,5,6,7-hexahydro-s-indacen-4-yl)carbamoyl]amino}-3-(pyridin-3-yl)propanoate] | 0.24 | 
COC(=O)C(Cc1cnn(C)c1)NC(=O)Nc1c2c(cc3c1CCC3)CCC2 (stereo not drawn) [Example 2Q, Methyl 2-{[(1,2,3,5,6,7-hexahydro-s-indacen-4-yl)carbamoyl]amino}-3-(1-methyl-1H-pyrazol-4-yl)propanoate] |  | 2.4
COC(=O)[C@@H](CC#N)NC(=O)Nc1c2c(cc3c1CCC3)CCC2 [Example 2QQ, methyl(2R)-3-cyano-2-{[(1,2,3,5,6,7-hexahydro-s-indacen-4yl)carbamoyl]amino}propanoate] | < 10 | 
COC(=O)[C@@H](Cc1cccc(N2CCCC2=O)c1)NC(=O)Nc1c2c(cc3c1CCC3)CCC2 [Example 2R, Methyl(2R)-2-{[(1,2,3,5,6,7-hexahydro-s-indacen-4-yl)carbamoyl]amino}-3-[3-(2-oxopyrrolidin-1-yl)phenyl]propanoate] | 0.33 | 
CCOC(=O)[C@@H](Cc1cccnc1)NC(=O)Nc1c2c(cc3c1CCC3)CCC2 [Example 2RR, ethyl(2R)-2-{[(1,2,3,5,6,7-hexahydro-s-indacen-4-yl)carbamoyl]amino}-3-(pyridin-3-yl)propanoate] | 1.7 | 
COC(=O)CC[C@@H](NC(=O)Nc1c2c(cc3c1CCC3)CCC2)C(=O)OC [Example 2S, 1,5-dimethyl(2R)-2-{[(1,2,3,5,6,7-hexahydro-s-indacen-4-yl)carbamoyl]amino}pentanedioate] |  | 3.5
O=C(Nc1c2c(cc3c1CCC3)CCC2)N[C@H](Cc1ccccc1)C(=O)O [Example 2SS, (2R)-2-{[(1,2,3,5,6,7-hexahydro-s-indacen-4-yl)carbamoyl]amino}-3-phenylpropanoic acid] | 14 | 
CCOC(=O)CNC(=O)Nc1cc2c(c3c1CCCC3)CCC2 [Example 2T, Ethyl 2-[({1H,2H,3H,6H,7H,8H,9H-cyclopenta[a]naphthalen-5-yl}carbamoyl)amino] acetate] |  | 3.1
COC(=O)C(Cn1cc(C)cn1)NC(=O)Nc1c2c(cc3c1CCC3)CCC2 (stereo not drawn) [Example 2TT, Methyl 2-{[(1,2,3,5,6,7-hexahydro-s-indacen-4-yl)carbamoyl]amino}-3-(4-methyl-1H-pyrazol-1-yl)propanoate] | 14 | 
COC(=O)[C@@H](Cc1cccc(Nc2cc[nH]n2)c1)NC(=O)Nc1c2c(cc3c1CCC3)CCC2 [Example 2U, Methyl(2R)-2-{[(1,2,3,5,6,7-hexahydro-s-indacen-4-yl)carbamoyl]amino}-3-{3-[(1H-pyrazol-3-yl)amino]phenyl}propanoate] | 0.31 | 
CCOC(=O)[C@@H](Cc1cccnc1)NC(=O)Nc1c(C(C)C)cccc1C(C)C [Example 2UU, Ethyl (2R)-2-({[2,6-bis(propan-2-yl)phenyl]carbamoyl}amino)-3-(pyridin-3-yl)propanoate] | 21 | 
O=C(Nc1c2c(cc3c1CCC3)CCC2)N[C@H](Cc1cccc(-c2cc[nH]n2)c1)C(=O)O [Example 2V, (2R)-2-{[(1,2,3,5,6,7-hexahydro-s-indacen-4-yl)carbamoyl]amino}-3-[3-(1H-pyrazol-3-yl)phenyl]propanoic acid] | 0.52 | 
